Measurements as given in ChEMBL document CHEMBL3351875, “Synthesis of Deuterated Benzopyran Derivatives as Selective COX-2 Inhibitors with Improved Pharmacokinetic Properties” (ACS Med Chem Lett, 2014).
pIC50: −log10 of the molar value.

Experiments:
Rattus norvegicus [1] = experiment: (§1) Apparent oral clearance in Sprague-Dawley rat at 10 mg/kg, po measured during 1 to 24 hrs by LC-MS method; type: ADME, organism-based; design: dose 10 mg/kg, route oral; details: in vivo
Rattus norvegicus [2] = experiment: (§2) AUC (0 to infinity) in Sprague-Dawley rat at 10 mg/kg, po measured during 1 to 24 hrs by LC-MS method; type: ADME, organism-based, Plasma; design: time infinity, dose 10 mg/kg, route oral; details: in vivo
[3] = Apparent oral clearance in Sprague-Dawley rat at 1 mg/kg, iv measured during 1 to 24 hrs by LC-MS method; type: ADME, organism-based; design: dose 1 mg/kg, route oral; details: in vivo
Rattus norvegicus [4] = experiment: Tmax in Sprague-Dawley rat at 10 mg/kg, po measured during 1 to 24 hrs by LC-MS method; type: ADME, organism-based; design: dose 10 mg/kg, route oral; details: in vivo
Rattus norvegicus [5] = experiment: Antiinflammatory activity in orally dosed Sprague-Dawley rat model of carrageenan-induced air pouch inflammation assessed as reduction in PGE2 level by ELISA method; type: functional, organism-based
[6] = Volume of distribution in Sprague-Dawley rat at 1 mg/kg, iv measured during 1 to 24 hrs by LC-MS method; type: ADME, organism-based; design: dose 1 mg/kg, route intravenous; details: in vivo
Rattus norvegicus [7] = experiment: Volume of distribution in Sprague-Dawley rat at 10 mg/kg, po measured during 1 to 24 hrs by LC-MS method; type: ADME, organism-based; design: dose 10 mg/kg, route oral; details: in vivo
Rattus norvegicus [8] = experiment: (§3) Oral bioavailability in Sprague-Dawley rat at 10 mg/kg measured during 1 to 24 hrs by LC-MS method; type: ADME, organism-based; details: in vivo
[9] = Cmax in Sprague-Dawley rat at 10 mg/kg, po measured during 1 to 24 hrs by LC-MS method; type: ADME, organism-based; design: dose 10 mg/kg, route oral; details: in vivo
Rattus norvegicus [10] = experiment: Half life in Sprague-Dawley rat at 1 mg/kg, iv measured during 1 to 24 hrs by LC-MS method; type: ADME, organism-based; design: dose 1 mg/kg, route intravenous; details: in vivo
Rattus norvegicus [11] = experiment: Half life in Sprague-Dawley rat at 10 mg/kg, po measured during 1 to 24 hrs by LC-MS method; type: ADME, organism-based; design: dose 10 mg/kg, route oral; details: in vivo
Rattus norvegicus [12] = experiment: (§4) AUC (0 to infinity) in Sprague-Dawley rat at 1 mg/kg, iv measured during 1 to 24 hrs by LC-MS method; type: ADME, organism-based, Plasma; design: time infinity, dose 1 mg/kg, route intravenous; details: in vivo
[13] = molecular target: Prostaglandin G/H synthase 1 (Homo sapiens, UniProt P23219); experiment: Inhibition of human recombinant COX1 pre-incubated for 15 mins before fluorometric substrate addition by fluorescence based assay
[14] = Cmax in Sprague-Dawley rat at 1 mg/kg, iv measured during 1 to 24 hrs by LC-MS method; type: ADME, organism-based; design: dose 1 mg/kg, route intravenous; details: in vivo
[15] = molecular target: T1, Prostaglandin G/H synthase 2 (Homo sapiens, UniProt P35354); experiment: Inhibition of human recombinant COX2 pre-incubated for 15 mins before fluorometric substrate addition by fluorescence based assay
T1 sequence (P35354 whole entry): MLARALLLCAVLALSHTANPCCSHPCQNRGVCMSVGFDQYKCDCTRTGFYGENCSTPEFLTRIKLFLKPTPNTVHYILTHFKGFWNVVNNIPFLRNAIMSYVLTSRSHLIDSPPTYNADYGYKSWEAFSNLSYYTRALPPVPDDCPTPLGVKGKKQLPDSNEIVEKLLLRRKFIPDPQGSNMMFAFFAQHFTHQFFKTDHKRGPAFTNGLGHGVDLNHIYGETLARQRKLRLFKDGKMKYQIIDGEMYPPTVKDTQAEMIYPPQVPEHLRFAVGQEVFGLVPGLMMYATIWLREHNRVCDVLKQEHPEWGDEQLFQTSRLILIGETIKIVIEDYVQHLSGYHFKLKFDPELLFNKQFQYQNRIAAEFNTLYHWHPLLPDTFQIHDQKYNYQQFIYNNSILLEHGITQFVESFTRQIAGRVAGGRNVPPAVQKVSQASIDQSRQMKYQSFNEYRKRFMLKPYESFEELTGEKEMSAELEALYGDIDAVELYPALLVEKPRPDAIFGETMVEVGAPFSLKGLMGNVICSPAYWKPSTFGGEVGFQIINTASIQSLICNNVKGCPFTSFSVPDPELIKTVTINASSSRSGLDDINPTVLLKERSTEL

Rattus norvegicus [16] = experiment: Volume of distribution in Sprague-Dawley rat at 2.5 mg/kg, po measured during 1 to 24 hrs by LC-MS method; type: ADME, organism-based; design: dose 2.5 mg/kg, route oral; details: in vivo
Rattus norvegicus [17] = experiment: Half life in Sprague-Dawley rat at 2.5 mg/kg, po measured during 1 to 24 hrs by LC-MS method; type: ADME, organism-based; design: dose 2.5 mg/kg, route oral; details: in vivo
Rattus norvegicus [18] = experiment: Tmax in Sprague-Dawley rat at 2.5 mg/kg, po measured during 1 to 24 hrs by LC-MS method; type: ADME, organism-based; design: dose 2.5 mg/kg, route oral; details: in vivo
[19] = (§5) Apparent oral clearance in Sprague-Dawley rat at 2.5 mg/kg, po measured during 1 to 24 hrs by LC-MS method; type: ADME, organism-based; design: dose 2.5 mg/kg, route oral; details: Sprague-Dawley, in vivo
[20] = (§6) Oral bioavailability in Sprague-Dawley rat at 2.5 mg/kg measured during 1 to 24 hrs by LC-MS method; type: ADME, organism-based; details: Sprague-Dawley, in vivo
[21] = Cmax in Sprague-Dawley rat at 2.5 mg/kg, po measured during 1 to 24 hrs by LC-MS method; type: ADME, organism-based; design: dose 2.5 mg/kg, route oral; details: in vivo
[22] = (§7) AUC (0 to infinity) in Sprague-Dawley rat at 2.5 mg/kg, po measured during 1 to 24 hrs by LC-MS method; type: ADME, organism-based, Plasma; design: dose 2.5 mg/kg, route oral, time infinity; details: Sprague-Dawley, plasma
[23] = as §4; type: ADME, organism-based, Plasma; design: time infinity, dose 1 mg/kg, route intravenous; details: Sprague-Dawley, plasma
Rattus norvegicus [24] = experiment: (§8) AUC (0 to infinity) in Sprague-Dawley rat at 5 mg/kg, iv measured during 1 to 24 hrs by LC-MS method; type: ADME, organism-based, Plasma; design: time infinity, dose 5 mg/kg, route intravenous; details: in vivo
[25] = as §1; type: ADME, organism-based; design: dose 10 mg/kg, route oral; details: Sprague-Dawley, in vivo
Rattus norvegicus [26] = experiment: Antiarthritic activity in Lewis rat model of adjuvant-induced arthritis administrated by oral gavage once daily; type: functional
Rattus norvegicus [27] = experiment: Antinociceptive activity in orally dosed Sprague-Dawley rat model of carrageenan-induced foot paw hyperalgesia assessed as paw withdrawal latency; type: functional, organism-based
Rattus norvegicus [28] = experiment: Antiinflammatory activity in orally dosed Sprague-Dawley rat model of carrageenan-induced foot paw edema assessed as reduction in edema by plethysmometry; type: functional, organism-based
[29] = Volume of distribution in Sprague-Dawley rat at 5 mg/kg, iv measured during 1 to 24 hrs by LC-MS method; type: ADME, organism-based; design: dose 5 mg/kg, route intravenous; details: in vivo
Rattus norvegicus [30] = experiment: Half life in Sprague-Dawley rat at 5 mg/kg, iv measured during 1 to 24 hrs by LC-MS method; type: ADME, organism-based; design: dose 5 mg/kg, route intravenous; details: in vivo
[31] = Apparent oral clearance in Sprague-Dawley rat at 5 mg/kg, iv measured during 1 to 24 hrs by LC-MS method; type: ADME, organism-based; design: dose 5 mg/kg, route oral; details: in vivo
[32] = as §3; type: ADME, organism-based; details: Sprague-Dawley, in vivo
[33] = Cmax in Sprague-Dawley rat at 5 mg/kg, iv measured during 1 to 24 hrs by LC-MS method; type: ADME, organism-based; design: dose 5 mg/kg, route intravenous; details: in vivo
Rattus norvegicus [34] = experiment: as §5; type: ADME, organism-based; design: dose 2.5 mg/kg, route oral; details: in vivo
Rattus norvegicus [35] = experiment: as §6; type: ADME, organism-based; details: in vivo
Rattus norvegicus [36] = experiment: as §7; type: ADME, organism-based, Plasma; design: dose 2.5 mg/kg, route oral, time infinity; details: in vivo
[37] = as §8; type: ADME, organism-based, Plasma; design: time infinity, dose 5 mg/kg, route intravenous; details: Sprague-Dawley, plasma
[38] = as §2; type: ADME, organism-based, Plasma; design: time infinity, dose 10 mg/kg, route oral; details: Sprague-Dawley, plasma

Prostaglandin G/H synthase 1, sequence (P23219 whole entry): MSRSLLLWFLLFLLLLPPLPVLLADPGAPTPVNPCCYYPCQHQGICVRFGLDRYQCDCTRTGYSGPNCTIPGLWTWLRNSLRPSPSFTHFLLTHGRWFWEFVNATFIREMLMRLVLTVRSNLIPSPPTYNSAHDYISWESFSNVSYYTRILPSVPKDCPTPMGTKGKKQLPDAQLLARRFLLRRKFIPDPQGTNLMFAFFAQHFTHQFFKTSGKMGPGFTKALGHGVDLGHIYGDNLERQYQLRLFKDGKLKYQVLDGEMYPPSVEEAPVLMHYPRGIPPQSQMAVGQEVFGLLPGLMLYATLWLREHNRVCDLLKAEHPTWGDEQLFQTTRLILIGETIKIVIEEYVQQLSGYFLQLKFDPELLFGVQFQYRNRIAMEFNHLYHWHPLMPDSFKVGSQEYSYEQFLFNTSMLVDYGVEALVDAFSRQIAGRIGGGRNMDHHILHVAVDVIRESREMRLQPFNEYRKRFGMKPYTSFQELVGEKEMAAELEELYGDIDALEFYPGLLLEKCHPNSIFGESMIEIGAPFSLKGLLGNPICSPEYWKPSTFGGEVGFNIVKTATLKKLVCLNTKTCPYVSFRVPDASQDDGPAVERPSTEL

SMILES	AUC (Rattus norvegicus [2]) [ng·h/mL]	CL/F [3] [mL/min/kg]	EC50 (Rattus norvegicus [5]) [mg/kg]	Vd [6] [L/kg]	Vd (Rattus norvegicus [7]) [L/kg]	t1/2 (Rattus norvegicus [10]) [h]	pIC50 [13]	Cmax [14] [ng/mL]	pIC50 [15]	CL/F [25] [mL/min/kg]	EC50 (Rattus norvegicus [27]) [mg/kg]	EC50 (Rattus norvegicus [28]) [mg/kg]	Vd [29] [L/kg]	t1/2 (Rattus norvegicus [30]) [h]	CL/F [31] [mL/min/kg]	bioavailability [32] [%]	Cmax [33] [ng/mL]	further results
[2H]C([2H])([2H])c1cc2c(c(C([2H])([2H])[2H])c1Br)C=C(C(=O)O)[C@@H](C(F)(F)F)O2	–	–	–	–	–	–	< 4.00	–	8.05	–	–	–	–	–	–	–	–	–
Cc1cc2c(c(C)c1Br)C=C(C(=O)O)C(C(F)(F)F)O2 (stereo unspecified)	–	1.98	–	0.38	–	2.3	< 4.00	16700	6.72	–	–	–	–	–	–	–	–	Vd (Rattus norvegicus [16]): 1.13 L/kg; t1/2 (Rattus norvegicus [17]): 3.53 h; Tmax (Rattus norvegicus [18]): 0.375 h; CL/F [19]: 3.52 mL/min/kg; bioavailability [20]: 56.7%; Cmax [21]: 5340 ng/mL; AUC(0-inf) [22]: 12500 ng·h/mL; AUC(0-inf) [23]: 8840 ng·h/mL
[2H]C([2H])([2H])c1cc(Br)cc2c1OC(C(F)(F)F)C(C(=O)O)=C2 (stereo unspecified)	142686.966	–	0.27	–	0.53	–	–	–	7.41	1.2	2.19	3	0.461	4.186	1.28	107	39000	AUC (Rattus norvegicus [24]): 66436.832 ng·h/mL; ED50 (Rattus norvegicus [26]): 0.42 mg/kg
[2H]C([2H])([2H])c1cc2c(c(C([2H])([2H])[2H])c1)OC(C(F)(F)F)C(C(=O)O)=C2 (stereo unspecified)	–	–	–	–	–	–	< 4.00	–	–	–	–	–	–	–	–	–	–	–
[2H]C([2H])([2H])c1cc2c(c(C([2H])([2H])[2H])c1Cl)C=C(C(=O)O)[C@@H](C(F)(F)F)O2	–	–	–	–	–	–	< 4.00	–	–	–	–	–	–	–	–	–	–	–
[2H]C([2H])([2H])c1cc2c(c(C([2H])([2H])[2H])c1Cl)C=C(C(=O)O)C(C(F)(F)F)O2 (stereo unspecified)	118331.438	–	0.47	–	0.26	–	–	–	–	1.43	2.77	5.18	0.287	2.525	1.32	92.8	38800	AUC (Rattus norvegicus [24]): 63759.714 ng·h/mL

Continued, in another order:

AUC (Rattus norvegicus [2]) [ng·h/mL]	CL/F [3] [mL/min/kg]	EC50 (Rattus norvegicus [5]) [mg/kg]	Vd [6] [L/kg]	Vd (Rattus norvegicus [7]) [L/kg]	t1/2 (Rattus norvegicus [10]) [h]	pIC50 [13]	Cmax [14] [ng/mL]	pIC50 [15]	CL/F [25] [mL/min/kg]	EC50 (Rattus norvegicus [27]) [mg/kg]	EC50 (Rattus norvegicus [28]) [mg/kg]	Vd [29] [L/kg]	t1/2 (Rattus norvegicus [30]) [h]	CL/F [31] [mL/min/kg]	bioavailability [32] [%]	Cmax [33] [ng/mL]	SMILES	further results
12846.927	3.45	0.77	0.45	1.25	1.5	< 4.00	5040	–	–	–	–	–	–	–	–	–	Cc1cc2c(c(C)c1Cl)C=C(C(=O)O)C(C(F)(F)F)O2 (stereo unspecified)	CL/F (Rattus norvegicus [1]): 3.25 mL/min/kg; Tmax (Rattus norvegicus [4]): 0.438 h; F (Rattus norvegicus [8]): 78.5%; Cmax [9]: 6590 ng/mL; t1/2 (Rattus norvegicus [11]): 3.09 h; AUC (Rattus norvegicus [12]): 4898.988 ng·h/mL
–	1.2	0.45	0.404	–	3.909	–	9070	–	–	3.33	6.48	–	–	–	–	–	[2H]C([2H])([2H])c1cc(Cl)cc2c1OC(C(F)(F)F)C(C(=O)O)=C2 (stereo unspecified)	CL/F (Rattus norvegicus [34]): 1.1 mL/min/kg; F (Rattus norvegicus [35]): 110.7%; AUC (Rattus norvegicus [36]): 38900 µg/L.hr; AUC (Rattus norvegicus [12]): 14043.753 ng·h/mL
–	–	–	–	2.314	–	–	–	–	4.03	–	–	1.35	5.78	2.67	67.5	37200	CC(C)(C)c1cc2c(cc1Cl)C=C(C(=O)O)[C@@H](C(F)(F)F)O2 [TIGEMOCOXIB]	AUC(0-inf) [37]: 31300 ng·h/mL; AUC(0-inf) [38]: 42200 ng·h/mL; Tmax (Rattus norvegicus [4]): 0.75 h; Cmax [9]: 8150 ng/mL; t1/2 (Rattus norvegicus [11]): 6.68 h
